Assay results as given in US20260053834A1, “COVALENT MODIFIERS OF AKT1 AND USES THEREOF” (Terremoto Biosciences, Inc., priority 2023, published 2026).

Legend:
AKT2 = target: T1, AKT2 (Homo sapiens, UniProt P31751); assay: Live cell target engagement by NanoBRET competitive probe displacement, AKT2; format: binding; details: transfected HEK293 cells, 2 h at 37° C., read-out: AKT2 IC50: GeoMean IC50
T1 construct: expressed in transfected cells; host or cells: HEK293
Experimental: (§1) Determining live cell AKT1 E17K, AKT1 WT, and AKT2 target engagement by NanoBRET competitive probe displacement. Live cell target engagement assays were performed as described (Vasta, J. D. et al. Cell Chem Biol 2018, 25(11), 206-214). Briefly, HEK293 cells were transfected with plasmids encoding kinase-NanoLuciferase fusion proteins overnight. Cells were then treated with serial dilutions of compound and an ˜EC50 concentration of fluorescently-tagged ATP-competitive tracer (Promega). After incubation for 2 h at 37° C., luciferase substrate and extracellular luciferase inhibitor were added to all wells, and luminescent intensity at 460 nm and 600 nm were measured on a multimode plate-reader. The ratio of E600/E460 was calculated to give the tracer engagement signal (BRET). IC50 values were calculated by fitting BRET values to a log(inhibitor) vs. response Hill equation.

AKT1 WT = target: T2, AKT1 WT (Homo sapiens, UniProt P31749); assay: Live cell target engagement by NanoBRET competitive probe displacement, AKT1 WT; format: binding; details: transfected HEK293 cells, 2 h at 37° C., read-out: AKT1 WT IC50: GeoMean IC50
T2 construct: expressed in transfected cells; host or cells: HEK293
T2 sequence (P31749 whole entry): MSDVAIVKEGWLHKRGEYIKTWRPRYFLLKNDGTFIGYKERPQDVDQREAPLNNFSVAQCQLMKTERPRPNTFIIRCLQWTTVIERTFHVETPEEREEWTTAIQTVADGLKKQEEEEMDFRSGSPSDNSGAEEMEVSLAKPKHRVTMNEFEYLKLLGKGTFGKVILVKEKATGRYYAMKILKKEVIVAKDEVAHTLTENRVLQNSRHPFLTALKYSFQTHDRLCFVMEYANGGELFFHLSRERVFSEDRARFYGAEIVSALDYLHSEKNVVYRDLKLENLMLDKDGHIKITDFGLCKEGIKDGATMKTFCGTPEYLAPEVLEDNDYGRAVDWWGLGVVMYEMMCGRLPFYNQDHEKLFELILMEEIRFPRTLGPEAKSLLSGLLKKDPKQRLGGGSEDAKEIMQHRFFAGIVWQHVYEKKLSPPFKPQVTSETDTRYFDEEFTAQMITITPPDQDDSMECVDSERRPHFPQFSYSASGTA
Experimental: as §1

AKT1 E17K = target: T3, AKT1 E17K (Homo sapiens, UniProt P31749, E17K); assay: Live cell target engagement by NanoBRET competitive probe displacement, AKT1 E17K; format: binding; details: transfected HEK293 cells, 2 h at 37° C., read-out: AKT1 E17K IC50: GeoMean IC50
T3 construct: expressed in transfected cells; host or cells: HEK293
T3 sequence (P31749 whole entry E17K): as the sequence (P31749 whole entry) above, with E17K counted along it
Experimental: as §1

[1] = test system: LAPC4 prostate cancer cells, which express the AKT1 E17K allele; assay: Antiproliferative effects in LAPC4 cells (CellTiter Glo, 72 h); format: cell-based; details: Homo sapiens, LAPC4, 72 h, read-out: LAPC4 proliferation IC50: GeoMean IC50
Experimental: Antiproliferative effects in LAPC4 cells. LAPC4 prostate cancer cells (Klein, K. A. et al. Nat Med 1997, 3, 402-408), which express the AKT1 E17K allele, were grown in IMDM media (Hyclone) supplemented with 12% FBS+1% P/S. To assess compound effects on growth, 1,000 cells/well were seeded in 384 well assay plates, incubated with compound dilutions dissolved in DMSO. After 72 h, intracellular ATP content was assessed with CellTiter Glo reagent (Promega) according to the manufacturer's instructions. IC50 values were calculated by fitting luminescence values to a log(inhibitor) vs. response Hill equation.

T1 sequence (P31751 whole entry): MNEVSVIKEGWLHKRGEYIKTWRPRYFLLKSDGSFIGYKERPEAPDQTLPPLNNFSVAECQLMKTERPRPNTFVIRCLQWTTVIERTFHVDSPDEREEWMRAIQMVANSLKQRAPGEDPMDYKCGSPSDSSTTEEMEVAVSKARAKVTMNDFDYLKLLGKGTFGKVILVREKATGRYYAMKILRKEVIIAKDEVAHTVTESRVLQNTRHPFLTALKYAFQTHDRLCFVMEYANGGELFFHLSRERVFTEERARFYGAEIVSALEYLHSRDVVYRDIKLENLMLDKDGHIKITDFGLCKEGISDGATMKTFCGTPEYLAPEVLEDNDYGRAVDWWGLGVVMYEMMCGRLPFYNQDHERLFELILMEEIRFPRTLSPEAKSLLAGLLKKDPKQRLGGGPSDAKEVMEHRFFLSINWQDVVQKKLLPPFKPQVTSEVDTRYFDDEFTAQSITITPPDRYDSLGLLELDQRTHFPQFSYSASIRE

Structure (SMILES) | IC50 (AKT2) | IC50 (AKT1 WT) | IC50 (AKT1 E17K) | IC50 [1]
Cn1cc(-c2ccc3nc(-c4cccnc4N)n(-c4ccc5c(c4)CC[C@@H]5NC(=O)c4ccc(O)c(C=O)c4)c3n2)cn1 [Example 28, (S)—N-(5-(2-(2-aminopyridin-3-yl)-5-(1-methyl-1H-pyrazol-4-yl)-3H-imidazo[4,5-b]pyridin-3-yl)-2,3-dihydro-1H-inden-1-yl)-3-formyl-4-hydroxybenzamide] | 100 to 2000 nM | 10 to 100 nM | 10 to 100 nM | 10 to 100 nM
Nc1ncccc1-c1nc2ccc(-c3cnccn3)nc2n1-c1ccc2c(c1)CC[C@@H]2NC(=O)c1ccc(O)c(C=O)c1 [Example 29, N-[(1S)-5-[2-(2-aminopyridin-3-yl)-5-(pyrazin-2-yl)imidazo[4,5-b]pyridin-3-yl]-2,3-dihydro-1H-inden-1-yl]-3-formyl-4-hydroxybenzamide] | 100 to 2000 nM | 10 to 100 nM | < 10 nM | 10 to 100 nM
Nc1ncccc1-c1nc2ccc(-c3ccccc3)nc2n1-c1ccc2c(c1)CC[C@@H]2NC(=O)c1ccc(C=O)c(O)c1 [Example 30, N-[(1S)-5-[2-(2-aminopyridin-3-yl)-5-phenylimidazo[4,5-b]pyridin-3-yl]-2,3-dihydro-1H-inden-1-yl]-4-formyl-3-hydroxybenzamide] | 100 to 2000 nM | 100 to 2000 nM | 100 to 2000 nM | ≥ 2000 nM
Nc1ncccc1-c1nc2ccc(-c3ccccc3)nc2n1-c1ccc2c(c1)CC[C@@H]2NC(=O)c1ccc(C=O)c(O)c1F [Example 31, N-[(1S)-5-[2-(2-aminopyridin-3-yl)-5-phenylimidazo[4,5-b]pyridin-3-yl]-2,3-dihydro-1H-inden-1-yl]-2-fluoro-4-formyl-3-hydroxybenzamide] | 100 to 2000 nM | 10 to 100 nM | 10 to 100 nM | 100 to 2000 nM
Nc1ncccc1-c1nc2ccc(OC3CC3)nc2n1-c1ccc2c(c1)CC[C@@H]2NC(=O)c1ccc(O)c(C=O)c1 [Example 32, N-[(1S)-5-[2-(2-aminopyridin-3-yl)-5-cyclopropoxyimidazo[4,5-b]pyridin-3-yl]-2,3-dihydro-1H-inden-1-yl]-3-formyl-4-hydroxybenzamide] | ≥ 2000 nM | 100 to 2000 nM | 10 to 100 nM | 100 to 2000 nM
Nc1ncccc1-c1nc2ccc(-n3cccn3)nc2n1-c1ccc2c(c1)CC[C@@H]2NC(=O)c1ccc(O)c(C=O)c1 [Example 33, (S)—N-(5-(2-(2-aminopyridin-3-yl)-5-(1H-pyrazol-1-yl)-3H-imidazo[4,5-b]pyridin-3-yl)-2,3-dihydro-1H-inden-1-yl)-3-formyl-4-hydroxybenzamide] | 100 to 2000 nM | 10 to 100 nM | 10 to 100 nM | 10 to 100 nM
Nc1ncccc1-c1nc2ccc(-c3ccccc3)nc2n1-c1ccc2c(c1)CC[C@@H]2NC(=O)c1cc(C=O)c(O)cc1Cl [Example 34, N-[(1S)-5-[2-(2-aminopyridin-3-yl)-5-phenylimidazo[4,5-b]pyridin-3-yl]-2,3-dihydro-1H-inden-1-yl]-2-chloro-5-formyl-4-hydroxybenzamide] | 100 to 2000 nM | 10 to 100 nM | 10 to 100 nM | 100 to 2000 nM
Nc1ncccc1-c1nc2ccc(-c3ccccc3)nc2n1-c1ccc2c(c1)CC[C@@H]2NC(=O)c1cc(C=O)c2[nH]ncc2c1 [Example 35, N-[(1S)-5-[2-(2-aminopyridin-3-yl)-5-phenylimidazo[4,5-b]pyridin-3-yl]-2,3-dihydro-1H-inden-1-yl]-7-formyl-1H-indazole-5-carboxamide] | 10 to 100 nM | 10 to 100 nM | < 10 nM | < 10 nM
COc1cc(C(=O)N[C@H]2CCc3cc(-n4c(-c5cccnc5N)nc5ccc(-c6ccccc6)nc54)ccc32)cc(C=O)c1O [Example 36, N-[(1S)-5-[2-(2-aminopyridin-3-yl)-5-phenylimidazo[4,5-b]pyridin-3-yl]-2,3-dihydro-1H-inden-1-yl]-3-formyl-4-hydroxy-5-methoxybenzamide] | 100 to 2000 nM | 10 to 100 nM | 10 to 100 nM | 100 to 2000 nM
Nc1ncccc1-c1nc2ccc(Br)nc2n1-c1ccc2c(c1)CC[C@@H]2NC(=O)c1ccc(O)c(C=O)c1 [Example 37, (S)—N-(5-(2-(2-aminopyridin-3-yl)-5-bromo-3H-imidazo[4,5-b]pyridin-3-yl)-2,3-dihydro-1H-inden-1-yl)-3-formyl-4-hydroxybenzamide] | ≥ 2000 nM | 100 to 2000 nM | 10 to 100 nM | 100 to 2000 nM
CN1CCN(c2ccc3nc(-c4cccnc4N)n(-c4ccc5c(c4)CC[C@@H]5NC(=O)c4ccc(O)c(C=O)c4)c3n2)CC1 [Example 38, (S)—N-(5-(2-(2-aminopyridin-3-yl)-5-(4-methylpiperazin-1-yl)-3H-imidazo[4,5-b]pyridin-3-yl)-2,3-dihydro-1H-inden-1-yl)-3-formyl-4-hydroxybenzamide] | ≥ 2000 nM | 100 to 2000 nM | 10 to 100 nM | 100 to 2000 nM
Nc1ncccc1-c1nc2ccc(-c3ccccc3)nc2n1-c1ccc2c(c1)CC[C@@H]2Nc1nccc2c(C=O)c(O)ccc12 [Example 39, 1-{[(1S)-5-[2-(2-aminopyridin-3-yl)-5-phenylimidazo[4,5-b]pyridin-3-yl]-2,3-dihydro-1H-inden-1-yl]amino}-6-hydroxyisoquinoline-5-carbaldehyde] | 100 to 2000 nM | 100 to 2000 nM | 100 to 2000 nM | 100 to 2000 nM
Nc1ncccc1-c1nc2ccc(-c3ccccc3)nc2n1-c1ccc2c(c1)CC[C@@H]2NC(=O)c1cc(C=O)c(O)cn1 [Example 40, N-[(1S)-5-[2-(2-aminopyridin-3-yl)-5-phenylimidazo[4,5-b]pyridin-3-yl]-2,3-dihydro-1H-inden-1-yl]-4-formyl-5-hydroxypyridine-2-carboxamide] | ≥ 2000 nM | 100 to 2000 nM | ≥ 2000 nM | ≥ 2000 nM

Other lines, results leading:

IC50 (AKT2) | IC50 (AKT1 WT) | IC50 (AKT1 E17K) | IC50 [1] | Structure (SMILES)
≥ 2000 nM | 100 to 2000 nM | 100 to 2000 nM | 100 to 2000 nM | Cc1cc(C(=O)N[C@H]2CCc3cc(-n4c(-c5cccnc5N)nc5ccc(-c6ccccc6)nc54)ccc32)cc(C=O)c1O [Example 41, N-[(1S)-5-[2-(2-aminopyridin-3-yl)-5-phenylimidazo[4,5-b]pyridin-3-yl]-2,3-dihydro-1H-inden-1-yl]-3-formyl-4-hydroxy-5-methylbenzamide]
100 to 2000 nM | 100 to 2000 nM | 10 to 100 nM | 100 to 2000 nM | Nc1ncccc1-c1nc2ccc(N3CCOCC3)nc2n1-c1ccc2c(c1)CC[C@@H]2NC(=O)c1ccc(O)c(C=O)c1 [Example 42, N-[(1S)-5-[2-(2-aminopyridin-3-yl)-5-(morpholin-4-yl)imidazo[4,5-b]pyridin-3-yl]-2,3-dihydro-1H-inden-1-yl]-3-formyl-4-hydroxybenzamide]
≥ 2000 nM | 100 to 2000 nM | 10 to 100 nM | 100 to 2000 nM | CCc1ccc2nc(-c3cccnc3N)n(-c3ccc4c(c3)CC[C@@H]4NC(=O)c3ccc(O)c(C=O)c3)c2n1 [Example 43, (S)—N-(5-(2-(2-aminopyridin-3-yl)-5-ethyl-3H-imidazo[4,5-b]pyridin-3-yl)-2,3-dihydro-1H-inden-1-yl)-3-formyl-4-hydroxybenzamide]
≥ 2000 nM | 100 to 2000 nM | 100 to 2000 nM | 100 to 2000 nM | Cc1ccc2nc(-c3cccnc3N)n(-c3ccc4c(c3)CC[C@@H]4NC(=O)c3cc(F)c(O)c(C=O)c3)c2n1 [Example 44, (S)—N-(5-(2-(2-aminopyridin-3-yl)-5-methyl-3H-imidazo[4,5-b]pyridin-3-yl)-2,3-dihydro-1H-inden-1-yl)-3-fluoro-5-formyl-4-hydroxybenzamide]
≥ 2000 nM | 100 to 2000 nM | 100 to 2000 nM | 100 to 2000 nM | CC(=O)Nc1ccc(C(=O)N[C@H]2CCc3cc(-n4c(-c5cccnc5N)nc5ccc(C)nc54)ccc32)cc1C=O [Example 45, N-[(1S)-5-[2-(2-aminopyridin-3-yl)-5-methylimidazo[4,5-b]pyridin-3-yl]-2,3-dihydro-1H-inden-1-yl]-4-acetamido-3-formylbenzamide]
≥ 2000 nM | 100 to 2000 nM | 100 to 2000 nM | 100 to 2000 nM | COc1ccc2nc(-c3cccnc3N)n(-c3ccc4c(c3)CC[C@@H]4NC(=O)c3ccc(O)c(C=O)c3)c2n1 [Example 46, (S)—N-(5-(2-(2-aminopyridin-3-yl)-5-methoxy-3H-imidazo[4,5-b]pyridin-3-yl)-2,3-dihydro-1H-inden-1-yl)-3-formyl-4-hydroxybenzamide]
